According to ChEMBL document CHEMBL1145278, “Inhibitors of HCV NS5B polymerase. Part 2: Evaluation of the northern region of (2Z)-2-benzoylamino-3-(4-phenoxy-phenyl)-acrylic acid” (Bioorg Med Chem Lett, 2005):

How the values were obtained:
[1] = target: RNA-directed RNA polymerase (Hepacivirus hominis) (UniProt O39930); assay: Effective dose for RNA dependent RNA polymerase Nonstructural protein 5B (HCV NS5B polymerase) in Hepatitis C virus
[2] = target: RNA-directed RNA polymerase (Hepacivirus hominis, UniProt O39930); assay: Inhibitory concentration against RNA dependent RNA polymerase Nonstructural protein 5B (HCV NS5B polymerase) in Hepatitis C virus
[3] = target: RNA-directed RNA polymerase (Hepacivirus hominis) (UniProt O39930); assay: Ratio for cellular to RNA dependent RNA polymerase Nonstructural protein 5B activity in Hepatitis C virus
[4] = target: RNA-directed RNA polymerase (Hepacivirus hominis) (UniProt O39930); assay: Cytotoxic concentration against RNA dependent RNA polymerase Nonstructural protein 5B (HCV NS5B polymerase) in Hepatitis C virus
[5] = Maximum concentration upon oral administration to rat at 5 mg/kg; assay type: ADME, organism-based; set-up: dose 5 mg/kg, route oral; settings: in vivo
Rattus norvegicus [6] = assay: Half life was determined upon oral administration to rat; assay type: functional, organism-based
[7] = Clearance measured in Sprague Dawley rat dosed at 5mg/kg; assay type: ADME, organism-based; settings: in vivo
Rattus norvegicus [8] = assay: Oral bioavailability in rat; assay type: functional, organism-based

Sequence of RNA-directed RNA polymerase (O39930 whole entry): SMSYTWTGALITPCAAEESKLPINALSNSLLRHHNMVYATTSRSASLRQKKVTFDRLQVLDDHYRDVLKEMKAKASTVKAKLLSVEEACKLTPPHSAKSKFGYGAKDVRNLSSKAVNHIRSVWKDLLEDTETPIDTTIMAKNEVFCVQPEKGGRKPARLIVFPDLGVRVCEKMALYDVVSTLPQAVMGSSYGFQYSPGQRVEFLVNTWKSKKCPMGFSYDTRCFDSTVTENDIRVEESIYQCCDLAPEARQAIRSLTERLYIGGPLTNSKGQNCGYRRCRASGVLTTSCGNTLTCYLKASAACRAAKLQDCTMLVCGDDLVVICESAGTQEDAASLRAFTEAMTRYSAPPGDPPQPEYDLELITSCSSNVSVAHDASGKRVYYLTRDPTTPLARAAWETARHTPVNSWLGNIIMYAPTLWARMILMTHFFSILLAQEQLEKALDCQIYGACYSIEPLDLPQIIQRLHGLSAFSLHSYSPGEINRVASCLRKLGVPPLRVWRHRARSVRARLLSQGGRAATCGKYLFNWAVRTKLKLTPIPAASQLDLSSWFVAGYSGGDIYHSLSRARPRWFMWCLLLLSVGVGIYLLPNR
Sequence of RNA-directed RNA polymerase (Hepacivirus hominis) (O39930 1-591): as the sequence (O39930 whole entry) above

SMILES	ED50 [1] [µM]	IC50 [2] [µM]	Ratio [3]	Cmax [5] [µM]	clearance [7] [mL/min/kg]	CC50 [4] [µM]	T1/2 (Rattus norvegicus [6]) [h]	bioavailability (Rattus norvegicus [8]) [%]
CCc1ccccc1Oc1ccc(/C=C(\NC(=O)CCC2CCCC2)C(=O)O)cc1	15	7.1	2	–	–	> 100	–	–
O=C(CCC1CCCC1)N/C(=C\c1ccc(Oc2ccc(F)cc2Br)cc1)C(=O)O	12	15	0.8	–	–	> 100	–	–
O=C(O)CNC(=O)/C(=C/c1ccc(Oc2ccccc2Br)cc1)NC(=O)c1ccccc1	> 50	0.06	–	–	–	> 50	–	–
O=C(CC1CCCC1)N/C(=C\c1ccc(Oc2ccccc2Br)cc1)C(=O)O	> 100	0.85	–	–	–	–	–	–
O=C(Nc1ccc(O)cc1)/C(=C/c1ccc(Oc2ccccc2Br)cc1)NC(=O)c1ccccc1	> 50	12	–	–	–	22	–	–
O=C(O)/C(=C/c1ccc(Oc2c(F)cccc2Br)cc1)NC(=O)c1ccccc1	60	–	–	–	–	–	–	–
O=C(O)CCCC(=O)N/C(=C\c1ccc(Oc2ccccc2I)cc1)C(=O)O	> 100	0.83	–	–	–	–	–	–
O=C(O)/C(=C/c1ccc(Oc2ccccc2Br)cc1)NC(=O)C12CC3CC(CC(C3)C1)C2	> 100	–	–	–	–	–	–	–
O=C(O)/C(=C/c1ccc(Oc2ccccc2Br)cc1)NC(=O)c1ccc(F)cc1F	> 100	0.23	–	–	–	> 100	–	–
O=C(CCC1CCCC1)N/C(=C\c1ccc(Oc2ccccc2Br)cc1)C(=O)O	12	6	2	–	–	> 100	–	–
CCc1ccccc1C(=O)N/C(=C\c1ccc(Oc2ccccc2Br)cc1)C(=O)O	70	0.05	–	–	–	> 100	–	–
O=C(Cc1ccc(F)cc1)N/C(=C\c1ccc(Oc2ccccc2Br)cc1)C(=O)O	> 100	2.2	–	–	–	> 100	–	–
O=C(CCc1ccc(Cl)cc1)N/C(=C\c1ccc(Oc2ccccc2Br)cc1)C(=O)O	> 100	0.5	–	–	–	> 100	–	–
O=C(O)/C(=C/c1ccc(Oc2ccccc2Br)cc1)NC(=O)c1ccccc1	28	–	280	9	3.33	> 100	1.5	21
CONC(=O)/C(=C/c1ccc(Oc2ccccc2Br)cc1)NC(=O)c1ccccc1	> 50	0.8	–	–	–	22	–	–
O=C(O)/C(=C/c1ccc(Oc2ccccc2Br)cc1)NC(=O)c1ccc(Br)cc1	> 100	0.12	–	–	–	> 100	–	–
O=C(O)/C(=C/c1ccc(Oc2ccccc2Br)cc1)NC(=O)c1ccccc1O	> 100	0.08	–	–	–	> 100	–	–
O=C(Nc1ccccc1)/C(=C/c1ccc(Oc2ccccc2Br)cc1)NC(=O)c1ccccc1	> 50	> 100	–	–	–	> 50	–	–
O=C(Cc1ccc(I)cc1)N/C(=C\c1ccc(Oc2ccccc2Br)cc1)C(=O)O	> 100	1	–	–	–	> 100	–	–
O=C(NCc1ccccc1)/C(=C/c1ccc(Oc2ccccc2Br)cc1)NC(=O)c1ccccc1	> 50	> 100	–	–	–	> 50	–	–
O=C(O)/C(=C/c1ccc(Oc2ccccc2Br)cc1)NC(=O)c1ccc(Cl)cc1	> 100	0.11	–	–	–	> 100	–	–
O=C(O)/C(=C/c1ccc(Oc2ccccc2Br)cc1)NC(=O)c1ccc(F)c(F)c1	> 100	0.23	–	–	–	> 100	–	–

The next lines start with results.

ED50 [1] [µM]	IC50 [2] [µM]	Ratio [3]	Cmax [5] [µM]	clearance [7] [mL/min/kg]	SMILES	CC50 [4] [µM]	T1/2 (Rattus norvegicus [6]) [h]	bioavailability (Rattus norvegicus [8]) [%]
5	6.3	0.7	–	–	O=C(CCC1CCCC1)N/C(=C\c1ccc(Oc2ccccc2C(F)(F)F)cc1)C(=O)O	> 100	–	–
> 100	2.8	–	–	–	O=C(O)/C(=C/c1ccc(Oc2ccccc2I)cc1)NC(=O)C1CC1	–	–	–
> 100	0.6	–	–	–	O=C(CCc1ccc(F)cc1)N/C(=C\c1ccc(Oc2ccccc2Br)cc1)C(=O)O	> 100	–	–
> 100	2.6	–	–	–	Cc1ccc(CCC(=O)N/C(=C\c2ccc(Oc3ccccc3Br)cc2)C(=O)O)cc1	> 100	–	–
> 100	0.79	–	–	–	O=C(O)CCC(=O)N/C(=C\c1ccc(Oc2ccccc2I)cc1)C(=O)O	–	–	–
> 100	0.37	–	–	–	O=C(CCc1ccc(C(F)(F)F)cc1)N/C(=C\c1ccc(Oc2ccccc2Br)cc1)C(=O)O	> 100	–	–
53	0.09	–	–	–	O=C(O)/C(=C/c1ccc(Oc2ccccc2Br)cc1)NC(=O)c1cccc(F)c1	> 100	–	–
15	7	2	–	–	O=C(CCC1CCCC1)N/C(=C\c1ccc(Oc2ccccc2I)cc1)C(=O)O	–	–	–
> 50	15	–	–	–	O=C(Nc1ccccc1O)/C(=C/c1ccc(Oc2ccccc2Br)cc1)NC(=O)c1ccccc1	> 50	–	–
> 100	0.25	–	–	–	Cc1ccc(C(=O)N/C(=C\c2ccc(Oc3ccccc3Br)cc2)C(=O)O)cc1	> 100	–	–
> 100	4.8	–	–	–	CC(O)C(=O)N/C(=C\c1ccc(Oc2ccccc2I)cc1)C(=O)O (stereo unspecified)	–	–	–
> 50	1	–	–	–	NNC(=O)/C(=C/c1ccc(Oc2ccccc2Br)cc1)NC(=O)c1ccccc1	> 50	–	–
5	14	0.4	–	–	Nc1ccc(Oc2ccc(/C=C(\NC(=O)CCC3CCCC3)C(=O)O)cc2)c(C(F)(F)F)c1	> 50	–	–
> 100	13	–	–	–	O=C(CCC1CCCCC1)N/C(=C\c1ccc(Oc2ccccc2Br)cc1)C(=O)O	–	–	–
> 100	0.1	–	–	–	O=C(O)/C(=C/c1ccc(Oc2ccccc2Br)cc1)NC(=O)C1CC2CCC1C2 (stereo unspecified)	–	–	–
> 100	2.2	–	–	–	O=C(CC1CCCCC1)N/C(=C\c1ccc(Oc2ccccc2Br)cc1)C(=O)O	–	–	–
> 100	1	–	–	–	O=C(Cc1ccc(C(F)(F)F)cc1)N/C(=C\c1ccc(Oc2ccccc2Br)cc1)C(=O)O	18	–	–
> 100	0.18	–	–	–	O=C(O)/C(=C/c1ccc(Oc2ccccc2Br)cc1)NC(=O)c1ccccc1F	> 100	–	–
8	2.7	3	1.5	53.3	O=C(NCCO)/C(=C/c1ccc(Oc2ccccc2Br)cc1)NC(=O)c1ccccc1	> 50	1	76
> 100	0.94	–	–	–	O=C(Cc1ccc(Cl)cc1)N/C(=C\c1ccc(Oc2ccccc2Br)cc1)C(=O)O	> 100	–	–
> 100	3.1	–	–	–	O=C(O)/C(=C/c1ccc(Oc2ccccc2I)cc1)NC(=O)C(O)c1ccccc1 (stereo unspecified)	–	–	–
> 50	0.4	–	–	–	O=C(Nc1ccccc1C(=O)O)/C(=C/c1ccc(Oc2ccccc2Br)cc1)NC(=O)c1ccccc1	> 50	–	–
> 100	0.2	–	–	–	O=C(O)/C(=C/c1ccc(Oc2ccccc2Br)cc1)NC(=O)C1CCCCC1	–	–	–
> 100	0.82	–	–	–	O=C(Cc1ccc(Br)cc1)N/C(=C\c1ccc(Oc2ccccc2Br)cc1)C(=O)O	> 100	–	–
15	1.9	–	–	–	O=C(Nc1cccc(O)c1)/C(=C/c1ccc(Oc2ccccc2Br)cc1)NC(=O)c1ccccc1	25	–	–
20	0.5	–	–	–	NC(=O)/C(=C/c1ccc(Oc2ccccc2Br)cc1)NC(=O)c1ccccc1	45	–	–
> 100	2	–	–	–	O=C(CO)N/C(=C\c1ccc(Oc2ccccc2I)cc1)C(=O)O	–	–	–
